From patent publication US20260242738A1, “ALK5 INHIBITORS FOR EFFICIENT DERIVATION OF MESENCHYMAL STEM CELLS FROM EMBRYONIC STEM CELLS” (SCRIPPS HEALTH, priority 2022, published 2026)
“Also recorded” adds a separate entry of the source.

What was measured:
HADC 100 ES-MSC = assay: Pellet culture chondrogenesis, histology and immunohistochemistry; assay type: cell-based, human; conditions: 3 weeks; for cartilage-like tissue formation in high density pellets: HADC 100 ES-MSC, Safranin-O, collagen type I and II
Experimental: Monolayer-expanded ES-MSC (passage 2-5) were detached using Accutase® and 0.5×10^6 cells in 0.5 ml of chondrogenic medium were centrifuged at 900 rpm (~770 G) for 5 minutes to form high-density pellets. At least 5-6 pellets, for each ES-MSC condition, were cultured in serum-free chondrogenic medium consisting of Dulbecco's Modified Eagle Medium (Mediatech Inc., Manassas, VA), 1×ITS supplement (Sigma-Aldrich, St. Louis, MO), 100 nM Dexamethasone (Sigma), 1.25 mg/ml human serum albumin (Bayer, Leverkusen, Germany), 100 μM ascorbic acid 2-phosphate (Sigma), 1% penicillin/streptomycin/gentamycin (PSG, Gibco, Carlsbad, CA), and 10 ng/ml TGFβ3 (PeproTech, Rocky Hill, NJ). Pellets for ex vivo implantation were cultured for 3 days before implantation; pellets for histologic or gene expression analysis were maintained in culture for 3 weeks with media changes every 3 to 4 days.
Cell pellets and explants were fixed in Z-Fix (3.7% formaldehyde, Anatech Ltd., Battle Creek, MI), processed for embedding in paraffin, and cut into 4 μm-thick sections. Sections were stained with Safranin-O and Fast Green to visualize glycosaminoglycan distribution in the tissues. Alzarin Red S staining was used to detect the presence of mineralized matrix.
For assessment of collagen types I and II, sections were pretreated with pepsin (Digest-All 3, Thermo Fisher Scientific) for 9 minutes at 37° C. in a humid chamber before incubation at 4° C. for 12 to 16 hours with the following primary antibodies: rabbit anti-human collagen type I antibody (Ab 34710, Abcam, Cambridge, MA) 1 μg/ml; or mouse anti-human collagen type II (II-II6B3, Hybridoma Bank, University of Iowa) 2 μg/ml. For color development, the ImmPRESS secondary DAB (brown) or AP (red) kits (Vector Laboratories, Burlingame, CA) was used. Isotype controls were used to monitor non-specific staining.

[1] = test system: ex vivo osteoarthritic cartilage explants; assay: Ex vivo human osteoarthritic cartilage defect repair with fibrin-ECM constructs or pellets; assay type: cell-based; conditions: implanted as hydrogel or pellets, 3 weeks, serum-free chondrogenic medium with TGFβ3 10 ng/ml
Experimental: Monolayer cultured ES-MSC were suspended in a hydrogel wafer composed of collagen II (Innovative Research Inc. Novi, MI), hyaluronate (Supartz FX sodium hyaluronate, Seikagaku Corp. Tokyo, Japan), chondroitin sulfate (Sigma-Aldrich) and fibrin (Baxter Healthcare, Deerfield, IL) at a density of 20×10^6 cells per ml. The fibrinogen and thrombin components were prepared separately. To each fibrinogen component, 2 mg/ml sodium hyaluronate, 2 mg/ml chondroitin sulfate and 6 mg/ml collagen II was added (2× concentration of final). Cells were added to the thrombin component at a density of 40×10^6 cells per ml. Thrombin and fibrinogen components in individual syringes were attached to a Baxter DUO mixing syringe and extruded to form the coagulated constructs. The constructs were either directly implanted into ex vivo cartilage tissue or coagulated in 6 well tissue culture plates for 4 to 8 minutes before 4-6 ml of chondrogenic medium was added. To prevent shrinkage of the constructs during culture, the gels were held on AdminPatch microneedle arrays (AdminMed, Sunnyvale, CA) for the duration of their culture.
Osteochondral tissues were obtained from patients ranging between 60 to 70 years of age undergoing total knee arthroplasty within 4-6 hours of surgery (approved by Scripps Institutional Review Board) as previous described. Cartilage disks (6 mm in diameter and ~2-3 mm thick) were harvested from the osteochondral specimens using a sterile dermal punch. The cartilage tissue was cultured in medium consisting of DMEM (Mediatech Inc., Manassas, VA) supplemented with 10% calf serum (Omega Scientific Inc., Tarzana, CA) and 1% Penicillin-Streptomycin-Gentamycin (Life Technologies, Carlsbad, CA). Cartilage disks were maintained in 6-well plates (2-4 per well) in 8 ml medium for 72 hours before creation of the surgical defect. A flame-sterilized stainless-steel burr was used create defects approximately 2×2 mm wide and 0.5 to 1 mm deep. These defects were filled with pellets or hydrogel constructs trimmed to size using 2 mm dermal biopsy punches. […]

Cc1cccc(-c2[nH]c(C(C)(C)C)nc2-c2ccc3nccnc3c2)n1 [SB525334]
staining for GAGs, collagen type II and collagen type I in pellets compared to the other ALK5 inhibitors (HADC 100 ES-MSC; HADC 100 ES-MSC pellets): most consistent staining for GAGs and collagen type II, and lower collagen type I signal; also recorded: most uniform GAGs and collagen type II deposition, and with reduced collagen type I | cartilage-like tissue formation in high density pellets (HADC 100 ES-MSC): also produced cartilage-like tissue | cartilaginous neo-tissue formation in ex vivo osteoarthritic explants [1]: formed equally well

NC(=O)c1ccc(-c2nc(-c3ccc4c(c3)OCO4)c(-c3ccccn3)[nH]2)cc1 [SB431542]
cartilage-like tissue formation in high density pellets (HADC 100 ES-MSC): consistently produced cartilage like-tissue | cartilaginous neo-tissue formation in ex vivo osteoarthritic explants [1]: formed equally well
